Molecular target: recombinant full length HPK-1 enzyme (Homo sapiens (Human), UniProt Q92918)
Assay: HPK-1 biochemical enzyme assay (ADP-Glo kinase inhibition)
Conditions: recombinant full length HPK-1 6.8 nM, 10 μM ATP, 12.5 μM MBP, 30 mins at 25° C.
Procedure: HPK-1 biochemical enzyme assay
Compound inhibitory potency was measured in an HPK-1 kinase inhibition assay. Briefly, recombinant full length HPK-1 enzyme (6.8 nM) was incubated with 10 μM ATP and 12.5 μM swine myelin basic protein (MBP) for 30 mins. at 25° C. in the presence of various concentrations of test compound or vehicle in 40 mM Tris.Cl pH7.4 buffer containing 20 mM MgCl2, 50 μM DTT and 0.1 mg/mL BSA. Reactions were quenched and reaction mixtures were then analyzed by an ADP-Glo kit which measures the formed ADP. The percent inhibition was calculated from the substrate conversion considering no enzyme control reactions for 100% inhibition and vehicle only reactions for 0% inhibition. The compounds were dissolved in DMSO and evaluated at 10 concentrations to determine an IC50 value.
In the below table A denotes an HPK-1 IC50≤10 nM, B denotes an HPK-1 IC50>10 nM but≤100 nM and C denotes an HPK-1 IC50>100 nM but≤1000 nM.

Sequence of recombinant full length HPK-1 enzyme (Q92918 whole entry, species assumed): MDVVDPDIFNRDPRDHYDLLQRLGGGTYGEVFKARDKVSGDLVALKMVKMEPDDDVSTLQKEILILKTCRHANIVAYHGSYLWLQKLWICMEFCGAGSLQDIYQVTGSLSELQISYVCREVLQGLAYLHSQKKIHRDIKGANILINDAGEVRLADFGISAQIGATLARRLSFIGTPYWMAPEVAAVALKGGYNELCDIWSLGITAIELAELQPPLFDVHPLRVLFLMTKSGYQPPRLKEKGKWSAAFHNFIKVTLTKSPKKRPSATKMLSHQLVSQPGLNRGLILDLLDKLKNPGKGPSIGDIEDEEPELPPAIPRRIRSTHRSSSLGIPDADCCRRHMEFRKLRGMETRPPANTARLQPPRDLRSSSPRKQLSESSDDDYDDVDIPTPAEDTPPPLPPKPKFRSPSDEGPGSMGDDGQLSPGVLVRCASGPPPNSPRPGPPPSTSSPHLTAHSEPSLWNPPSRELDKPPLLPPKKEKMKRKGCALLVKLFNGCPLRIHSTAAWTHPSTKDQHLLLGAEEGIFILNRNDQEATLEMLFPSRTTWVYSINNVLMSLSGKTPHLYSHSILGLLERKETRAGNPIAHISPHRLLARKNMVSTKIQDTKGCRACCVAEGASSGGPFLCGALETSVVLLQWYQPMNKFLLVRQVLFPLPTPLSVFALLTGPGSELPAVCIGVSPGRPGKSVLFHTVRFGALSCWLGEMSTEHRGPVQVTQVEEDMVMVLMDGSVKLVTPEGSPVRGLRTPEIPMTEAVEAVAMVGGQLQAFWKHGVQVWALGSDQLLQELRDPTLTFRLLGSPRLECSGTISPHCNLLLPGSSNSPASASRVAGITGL

Row | Structure (SMILES) | IC50
1 | Cc1c(Nc2cc[nH]c(=O)c2C(=O)Nc2ccc(N3CCN(C(=O)N(C)C)CC3)cc2)cnc2c1NCC(C)O2 (stereo not shown) [Example 182, 4-(4-(4-((3,8-dimethyl-2,3-dihydro-1H-pyrido[2,3-b][1,4]oxazin-7-yl)amino)-2-oxo-1,2-dihydropyridine-3-carboxamido)phenyl)-N,N-dimethylpiperazine-1-carboxamide] | ≤ 10 nM
2 | Cc1c(Nc2cc[nH]c(=O)c2C(=O)Nc2ccc(N3CCN(C(C)C)CC3)c(F)c2)cnc2c1NCC(C)O2 (stereo not shown) [Example 183, 4-((3,8-dimethyl-2,3-dihydro-1H-pyrido[2,3-b][1,4]oxazin-7-yl)amino)-N-(3-fluoro-4-(4-isopropylpiperazin-1-yl)phenyl)-2-oxo-1,2-dihydropyridine-3-carboxamide] | ≤ 10 nM
3 | Cc1c(Nc2cc[nH]c(=O)c2C(=O)Nc2ccc(C3CC(=O)N(C)C3)cc2)cnc2c1NCCO2 (stereo not shown) [Example 184, 4-((8-methyl-2,3-dihydro-1H-pyrido[2,3-b][1,4]oxazin-7-yl)amino)-N-(4-(1-methyl-5-oxopyrrolidin-3-yl)phenyl)-2-oxo-1,2-dihydropyridine-3-carboxamide] | ≤ 10 nM
4 | COCCN1CCN(c2ccc(NC(=O)c3c(Nc4cnc5c(c4C)NCC(C)O5)cc[nH]c3=O)cc2F)CC1 (stereo not shown) [Example 185, 4-((3,8-dimethyl-2,3-dihydro-1H-pyrido[2,3-b][1,4]oxazin-7-yl)amino)-N-(3-fluoro-4-(4-(2-methoxyethyl)piperazin-1-yl)phenyl)-2-oxo-1,2-dihydropyridine-3-carboxamide] | ≤ 10 nM
5 | Cc1c(Nc2cc[nH]c(=O)c2C(=O)Nc2ccc(N3CCN(CCO)CC3)c(F)c2)cnc2c1NCC(C)O2 (stereo not shown) [Example 186, 4-((3,8-dimethyl-2,3-dihydro-1H-pyrido[2,3-b][1,4]oxazin-7-yl)amino)-N-(3-fluoro-4-(4-(2-hydroxyethyl)piperazin-1-yl)phenyl)-2-oxo-1,2-dihydropyridine-3-carboxamide] | ≤ 10 nM
6 | Cc1c(Nc2cc[nH]c(=O)c2C(=O)Nc2ccc(N3CCN(C4CCCC4)CC3)cc2)cnc2c1NCC(C)O2 (stereo not shown) [Example 187, N-(4-(4-cyclopentylpiperazin-1-yl)phenyl)-4-((3,8-dimethyl-2,3-dihydro-1H-pyrido[2,3-b][1,4]oxazin-7-yl)amino)-2-oxo-1,2-dihydropyridine-3-carboxamide] | ≤ 10 nM
7 | CCC1CNc2c(ncc(Nc3cc[nH]c(=O)c3C(=O)Nc3ccc(N4CCN(C)CC4)cc3)c2C)O1 (stereo not shown) [Example 188, 4-((3-ethyl-8-methyl-2,3-dihydro-1H-pyrido[2,3-b][1,4]oxazin-7-yl)amino)-N-(4-(4-methylpiperazin-1-yl)phenyl)-2-oxo-1,2-dihydropyridine-3-carboxamide] | 10 to 100 nM
8 | Cc1c(Nc2cc[nH]c(=O)c2C(=O)Nc2ccc(N3CCN(C)CC3)cc2)cnc2c1NCC(C(C)C)O2 (stereo not shown) [Example 189, 4-((3-isopropyl-8-methyl-2,3-dihydro-1H-pyrido[2,3-b][1,4]oxazin-7-yl)amino)-N-(4-(4-methylpiperazin-1-yl)phenyl)-2-oxo-1,2-dihydropyridine-3-carboxamide] | 10 to 100 nM
9 | Cc1c(Nc2cc[nH]c(=O)c2C(=O)Nc2ccc(N3CCN(C)CC3)cc2)cnc2c1NCC1(CC1)O2 [Example 190, 4-((8′-methyl-1′,2′-dihydrospiro[cyclopropane-1,3′-pyrido[2,3-b][1,4]oxazin]-7′-yl)amino)-N-(4-(4-methylpiperazin-1-yl)phenyl)-2-oxo-1,2-dihydropyridine-3-carboxamide] | 10 to 100 nM
10 | Cc1c(Nc2cc[nH]c(=O)c2C(=O)Nc2ccc(N3CCN(C)CC3)c(C#N)c2)cnc2c1NCC(C)O2 (stereo not shown) [Example 191, N-(3-cyano-4-(4-methylpiperazin-1-yl)phenyl)-4-((3,8-dimethyl-2,3-dihydro-1H-pyrido[2,3-b][1,4]oxazin-7-yl)amino)-2-oxo-1,2-dihydropyridine-3-carboxamide] | 10 to 100 nM
11 | Cc1c(Nc2cc[nH]c(=O)c2C(=O)Nc2cnn(C3CCN(C)CC3)c2)cnc2c1NCC(C)O2 (stereo not shown) [Example 192, 4-((3,8-dimethyl-2,3-dihydro-1H-pyrido[2,3-b][1,4]oxazin-7-yl)amino)-N-(1-(1-methylpiperidin-4-yl)-1H-pyrazol-4-yl)-2-oxo-1,2-dihydropyridine-3-carboxamide] | 10 to 100 nM
12 | Cc1c(Nc2cc[nH]c(=O)c2C(=O)Nc2ccc(N3CCN(Cc4ccn[nH]4)CC3)cc2)cnc2c1NCC(C)O2 (stereo not shown) [Example 193, N-(4-(4-((1H-pyrazol-5-yl)methyl)piperazin-1-yl)phenyl)-4-((3,8-dimethyl-2,3-dihydro-1H-pyrido[2,3-b][1,4]oxazin-7-yl)amino)-2-oxo-1,2-dihydropyridine-3-carboxamide] | ≤ 10 nM
13 | Cc1cc(N2CCN(C)CC2)ccc1NC(=O)c1c(Nc2cnc3c(c2C)NCCO3)cc[nH]c1=O [Example 195, 4-((8-methyl-2,3-dihydro-1H-pyrido[2,3-b][1,4]oxazin-7-yl)amino)-N-(2-methyl-4-(4-methylpiperazin-1-yl)phenyl)-2-oxo-1,2-dihydropyridine-3-carboxamide] | 100 to 1000 nM
14 | Cc1c(Nc2cc[nH]c(=O)c2C(=O)Nc2ccc(N3CCN(C)CC3)c(C(F)(F)F)c2)cnc2c1NCC(C)O2 (stereo not shown) [Example 196, 4-((3,8-dimethyl-2,3-dihydro-1H-pyrido[2,3-b][1,4]oxazin-7-yl)amino)-N-(4-(4-methylpiperazin-1-yl)-3-(trifluoromethyl)phenyl)-2-oxo-1,2-dihydropyridine-3-carboxamide] | 10 to 100 nM
15 | COCC1CN(C)CCN1c1ccc(NC(=O)c2c(Nc3cnc4c(c3C)NCC(C)O4)cc[nH]c2=O)cc1 (stereo not shown) [Example 197, 4-((3,8-Dimethyl-2,3-dihydro-1H-pyrido[2,3-b][1,4]oxazin-7-yl)amino)-N-(4-(2-(methoxymethyl)-4-methylpiperazin-1-yl)phenyl)-2-oxo-1,2-dihydropyridine-3-carboxamide] | 10 to 100 nM
16 | Cc1c(Nc2cc[nH]c(=O)c2C(=O)Nc2ccc(N3CCN(C)CC3)cc2)cnc2c1NCC(F)O2 (stereo not shown) [Example 198, 4-((3-Fluoro-8-methyl-2,3-dihydro-1H-pyrido[2,3-b][1,4]oxazin-7-yl)amino)-N-(4-(4-methylpiperazin-1-yl)phenyl)-2-oxo-1,2-dihydropyridine-3-carboxamide] | 10 to 100 nM
17 | Cc1c(Nc2cc[nH]c(=O)c2C(=O)Nc2ccc(N3CCN(C)CC3)nc2)cnc2c1NCC(C)O2 (stereo not shown) [Example 199] | 10 to 100 nM
18 | Cc1cc(NC(=O)c2c(Nc3cnc4c(c3C)NCC(C)O4)cc[nH]c2=O)ccc1N1CCN(C)CC1 (stereo not shown) [Example 200, 4-((3,8-dimethyl-2,3-dihydro-1H-pyrido[2,3-b][1,4]oxazin-7-yl)amino)-N-(3-methyl-4-(4-methylpiperazin-1-yl)phenyl)-2-oxo-1,2-dihydropyridine-3-carboxamide] | ≤ 10 nM
19 | Cc1c(Nc2cc[nH]c(=O)c2C(=O)Nc2ccc(N3CCN4CCCC4C3)cc2)cnc2c1NCC(C)O2 (stereo not shown) [Example 201, 4-((3,8-dimethyl-2,3-dihydro-1H-pyrido[2,3-b][1,4]oxazin-7-yl)amino)-N-(4-(hexahydropyrrolo[1,2-a]pyrazin-2(1H)-yl)phenyl)-2-oxo-1,2-dihydropyridine-3-carboxamide] | 10 to 100 nM
